# How the values were obtained:
# Type in all cases: cell-based
# BXPC3 cells [1] = test: Clonogenic assay with VDR antagonist TEI-9647 and gemcitabine
# Method: Note sensitization at 2 μM of TEI-9647. The average of 3 independent experiments is shown.
# (§1) TEI-9647 alone killed cells, consistent with reduced clonogenic survival by VDR siRNA alone. Clonogenic assays were performed using several different doses of the inhibitor compound to compare clonogenic survival to assays described above using VDR siRNAs and shRNAs. The clonogenic assays were performed as described above. The TEI-9647 compound was added prior to gemcitabine addition, consistent with the timing of the siRNA treatments described above. Cells were treated with inhibitor for 48 hours followed by gemcitabine treatment for 48 hours and allowed to form colonies for 10-12 days. Survival was then quantified by staining and destaining of subsequent colonies with crystal violet and reading the resultant destain at wavelength 595 nm.
# Panc1 cells [2] = test: as above; conditions: data not shown
# Method: as §1
# Panc1:gfpH2B cells = test: Time-lapse videomicroscopy of cell fates with siRNAs/drugs and gemcitabine
# Source text: FIGS. 5A-5C show time lapse videomicroscopy tracking the fates of Panc1:gfpH2B cells treated with various combinations of siRNAs and drugs.
# White arrows show mitotic cells in Chk1 depleted cells. Other rounded cells are apoptotic.
# The fate of Panc1:gfpH2B cells treated with various combinations of siRNA and gemcitabine was tracked with time-lapse videomicroscopy (FIG. 5A). […] Cells were transfected with indicated siRNAs, and synchronized at the G1/S boundary. Time-lapse was started upon release from the G1/S block and continued for the next 48 hours. Select frames from the movies (0, 12, 24 and 48 hours) are shown.
# A comparison of cells treated with gemcitabine in the presence and absence of UCN01, an inhibitor of the Chk1 DNA damage response kinase was carried out (FIG. 5A).
# The percentage of cell death was quantified (FIG. 5C).
# The mechanism of chemosensitization by inhibiting VDR was investigated, and it was determined that this mechanism is different from overriding the DNA damage checkpoint pathway through Chk1 inhibition (FIG. 6A). […] Chk1 was depleted by using siRNAs targeted to the Chk1 transcript from the Dharmacon smartPOOL siRNA library. The siRNAs included the sequence […] (SEQ ID NO:8), […] (SEQ ID NO:9), […] (SEQ ID NO:10), and […] (SEQ ID NO:11).
# Loss of VDR promotes apoptosis of gemcitabine-treated cells through a different pathway than that which is used after Chk1 inhibition. […]
# BXPC3 cells [3] = test: Clonogenic survival after siRNA transfection and 18 h gemcitabine; conditions: VDR siRNA-transfected BXPC3 cells, gemcitabine 18 hours, colonies after eight days
# Method: (§2) Clonogenic survival of BXPC3 cells transfected with indicated siRNAs and treated with drug or vehicle. Plk1 siRNA is positive control for killing. […] Panc 1 cells transfected with VDR siRNA are also included.
# (§3) Cells were transfected with siRNA, treated with gemcitabine for 18 hours, then seeded. Surviving colonies were quantitated eight days later.
# Panc1 cells [4] = test: as above; conditions: VDR siRNA-transfected Panc 1 cells, gemcitabine 18 hours, colonies after eight days
# Method: as §2, §3
# BXPC3shVDR cells = test: Drug survival of BXPC3 cells stably depleted of VDR (rescue experiments)
# Panc1 cells [5] = test: Immunofluorescence staining for DNA damage response proteins; conditions: gemcitabine-treated compared to vehicle treated cells
# Source text: Immunofluorescence staining for DNA damage response proteins, TAO1, 53BP1, and γ-H2AX of gemcitabine treated Panc1 cells transfected with control or VDR siRNA.
# [6] = test system: BXPC3 cells stably expressing gfpH2B; test: Time-lapse microscopy of BXPC3 cells stably expressing gfpH2B (preliminary experiments); conditions: S phase by FACS
# Source text: VDR is known to induce transcription of the Cdk inhibitor, p21, and this is one of the reasons used to explain the anti-proliferative activity of vitamin D. As p21 is also activated by DNA damage, it is possible that VDR contributes to the cell cycle checkpoint arrest induced by gemcitabine. This will be directly tested by time-lapse microscopy of synchronized cells after depletion of VDR and treatment with gemcitabine.
# Panc1 cells [7] = test: Effect of the sublethal screening dose of gemcitabine (phospho-H2AX foci, cell cycle arrest); conditions: sublethal dose (IC20)
# Panc1 cells [8] = test: CellTiter-Glo viability assay with VDR short hairpin RNA and gemcitabine
# BXPC3 cells [9] = test: as above
compound,measurement,setting,value
C=C1C[C@H](C[C@@H](C)[C@H]2CC[C@H]3/C(=C/C=C4/C[C@@H](O)C[C@H](O)C4=C)CCC[C@]23C)OC1=O [TEI-9647],sensitization to gemcitabine (clonogenic survival),BXPC3 cells [1]; TEI-9647 added prior to gemcitabine,sensitize both BXPC3 and Panc1 cells to gemcitabine
same,TEI-9647 concentration at which sensitization is noted,"BXPC3 cells [1]; with gemcitabine, average of 3 independent experiments",2 µM
same,effect of TEI-9647 alone on clonogenic survival,BXPC3 cells [1]; without gemcitabine,killed cells
same,sensitization to gemcitabine (clonogenic survival),Panc1 cells [2],sensitize both BXPC3 and Panc1 cells to gemcitabine
CN[C@@H]1C[C@H]2O[C@@](C)([C@@H]1OC)n1c3ccccc3c3c4c(c5c6ccccc6n2c5c31)C(=O)N[C@@H]4O [UCN01],"fate of gemcitabine-treated cells (mitotic entry, phase of death)",Panc1:gfpH2B cells; 48 hour time-lapse after release from G1/S block,promoted cells to first enter mitosis (arrows) which then caused cell death
same,cell number at 48 hour versus 0 hour,"Panc1:gfpH2B cells; gemcitabine-treated cells with UCN01, phase contrast images",reduced cell number
"Nc1ccn([C@@H]2O[C@H](CO)[C@@H](O)C2(F)F)c(=O)n1 [gemcitabine, Gemcitabine]",further reduction of survival by gemcitabine,BXPC3 cells [3],> 85%
same,further reduction of survival by gemcitabine,Panc1 cells [4],> 85%
same,survival of BXPC3shVDR cells carrying the C288G VDR mutant,"BXPC3shVDR cells; 50 nM, compared to the same cells rescued by wild type VDR",killed
same,phospho-H2AX and 53BP1 staining in nuclei,Panc1 cells [5],increased
same,duration of arrest in interphase after gemcitabine treatment,[6],up to 48 hours
same,DNA damage and cell cycle arrest at the screening dose,Panc1 cells [7],sufficient to induce DNA damage
CC(=O)O[C@H]1C(=O)[C@@]2(C)[C@H]([C@H](OC(=O)c3ccccc3)[C@]3(O)C[C@H](OC(=O)[C@H](O)[C@@H](NC(=O)c4ccccc4)c4ccccc4)C(C)=C1C3(C)C)[C@]1(OC(C)=O)CO[C@@H]1C[C@@H]2O [taxol],effect of VDR status on killing by taxol,"BXPC3shVDR cells; two concentrations of taxol, BXPC3 parental, shVDR and rescued cells",did not affect killing
"VDR shRNA: VDR short hairpin RNA (clone ID TRCN000019504), sequence CGAAGUGUUUGGCAAUGAGAU (SEQ ID NO: 7) (listed as Homo sapiens)",sensitization to killing by gemcitabine (viability),Panc1 cells [8],sensitized both cell lines to killing by gemcitabine
same,sensitization to killing by gemcitabine (viability),BXPC3 cells [9],sensitized both cell lines to killing by gemcitabine

# From patent US9265787B2, “Combined inhibition of the vitamin D receptor and DNA replication in the treatment of cancer” (Institute for Cancer Research, priority 2011, dated 2016)
